Source: patent publication US8609719B2, “Propargylated aminoindans, processes for preparation, and uses thereof” (priority 2006, dated 2013)

Tests used:
MAO-A = target: T1, MAO-A (Homo sapiens, UniProt P21397); test: Decrease of plasma DHPG in patients (HPLC analysis of MAO-A inhibition); format: in vivo
T1 construct: from tissue; host or cells: patients in vivo; DHPG measured in plasma
T1 sequence (P21397 1-527): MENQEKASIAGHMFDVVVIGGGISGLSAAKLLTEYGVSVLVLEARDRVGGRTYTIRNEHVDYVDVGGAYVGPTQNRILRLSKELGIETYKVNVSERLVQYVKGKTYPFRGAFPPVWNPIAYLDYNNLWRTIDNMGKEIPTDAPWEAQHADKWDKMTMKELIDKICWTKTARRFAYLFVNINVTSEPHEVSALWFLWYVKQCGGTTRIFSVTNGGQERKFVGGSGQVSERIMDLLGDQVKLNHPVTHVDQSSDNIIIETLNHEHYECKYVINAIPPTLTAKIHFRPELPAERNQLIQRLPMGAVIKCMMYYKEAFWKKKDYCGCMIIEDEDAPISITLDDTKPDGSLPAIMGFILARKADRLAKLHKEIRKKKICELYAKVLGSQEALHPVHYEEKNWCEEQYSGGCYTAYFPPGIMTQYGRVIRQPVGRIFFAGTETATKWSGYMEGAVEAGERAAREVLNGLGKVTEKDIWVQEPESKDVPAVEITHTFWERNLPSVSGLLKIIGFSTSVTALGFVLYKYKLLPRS
Description: 8 patients, 7 female and 1 male, ages 62-81 with a median age of 68 and above with diagnosis of probable Alzheimer's disease according to DSM-IV (290.00 or 290.10) and NINCDS-ADRDA criteria were administered ladostigil tartrate according to the following schedule:
Decrease of 3,4-dihydroxyphenylglycol (“DHPG”) in plasma is indicative of monoamine oxidase inhibition, especially in the brain. DHPG plasma concentrations were measured in 6 of the aforementioned patients at baseline and at termination analysis, using HPLC equipped with an electrochemical detector.
The decrease in DHPG concentration in the six patients was determined. The average decrease in DHPG concentration was determined to be 57% with a standard deviation of 29.

Cholinesterase = Cholinesterase inhibition in patients at pre-dose; format: in vivo, human; settings: at maintenance and at termination analyses
Description: 8 patients, 7 female and 1 male, ages 62-81 with a median age of 68 and above with diagnosis of probable Alzheimer's disease according to DSM-IV (290.00 or 290.10) and NINCDS-ADRDA criteria were administered ladostigil tartrate according to the following schedule: […]

clinical = settings: human, in vivo; for Cmax / AUC / AUC(0-t): 100 mg, after ladostigil tartrate 100 mg twice daily; for AUC: AUC (M)

## C#CCN[C@@H]1CCc2ccc(OC(=O)N(C)CC)cc21 [ladostigil, R(+)-6-(N-methyl, N-ethyl-carbamoyloxy)-N′-propargyl-1-aminoindan]
MAO-A; Patient 1, termination analysis Week 9 vs baseline
  DHPG (T): −63%
MAO-A; Patient 2, termination analysis Week 9 vs baseline
  DHPG (T): −86%
MAO-A; Patient 5, termination analysis Week 9 vs baseline
  DHPG (T): >−79%
MAO-A; Patient 6, termination analysis Week 9 vs baseline
  DHPG (T): −73%
MAO-A; Patient 7, termination analysis Week 9 vs baseline
  DHPG (T): −30%
MAO-A; Patient 8, termination analysis Week 9 vs baseline
  DHPG (T): −13%
Cholinesterase
  Cholinesterase inhibition at pre-dose, in words: evident
clinical; both
  half-life: 64.8 min
clinical; both, Cmax (M), mean, mean of patients, maintenance analysis Week 4
  Cmax: 2.02e-06 M
clinical; both, Cmax (T), mean, mean of patients, termination analysis Week 9
  Cmax: 1.88e-06 M
clinical; Patient 1, maintenance analysis Week 4
  AUC: 314 ng·h/mL
clinical; Patient 2, maintenance analysis Week 4
  AUC: 589 ng·h/mL
clinical; Patient 3, maintenance analysis Week 4
  AUC: 1000 ng·h/mL
clinical; Patient 4, maintenance analysis Week 4
  AUC: 927 ng·h/mL
clinical; Patient 5, maintenance analysis Week 4
  AUC: 436 ng·h/mL
clinical; Patient 6, maintenance analysis Week 4
  AUC: 551 ng·h/mL
clinical; Patient 7, maintenance analysis Week 4
  AUC: 52 ng·h/mL
clinical; Patient 8, maintenance analysis Week 4
  AUC: 500 ng·h/mL
clinical; Patient 1, termination analysis Week 9
  AUC(0-t): 246 ng·h/mL
clinical; Patient 2, termination analysis Week 9
  AUC(0-t): 2300 ng·h/mL
clinical; Patient 3, termination analysis Week 9
  AUC(0-t): 1450 ng·h/mL
clinical; Patient 4, termination analysis Week 9
  AUC(0-t): 482 ng·h/mL
clinical; Patient 5, termination analysis Week 9
  AUC(0-t): 398 ng·h/mL
clinical; Patient 6, termination analysis Week 9
  AUC(0-t): 901 ng·h/mL
clinical; Patient 7, termination analysis Week 9
  AUC(0-t): 118 ng·h/mL
clinical; Patient 8, termination analysis Week 9
  AUC(0-t): 350 ng·h/mL
clinical; Cmax (M), Patient 1, maintenance analysis Week 4
  Cmax: 1.1e-06 M
clinical; Cmax (M), Patient 2, maintenance analysis Week 4
  Cmax: 1.2e-06 M
clinical; Cmax (M), Patient 3, maintenance analysis Week 4
  Cmax: 3.5e-06 M
clinical; Cmax (M), Patient 4, maintenance analysis Week 4
  Cmax: 3.9e-06 M
clinical; Cmax (M), Patient 5, maintenance analysis Week 4
  Cmax: 1.4e-06 M
clinical; Cmax (M), Patient 6, maintenance analysis Week 4
  Cmax: 1.5e-06 M
clinical; Cmax (M), Patient 7, maintenance analysis Week 4
  Cmax: 2e-07 M
clinical; Cmax (M), Patient 8, maintenance analysis Week 4
  Cmax: 1.7e-06 M
clinical; Cmax (T), Patient 1, termination analysis Week 9
  Cmax: 7e-07 M
clinical; Cmax (T), Patient 2, termination analysis Week 9
  Cmax: 3.8e-06 M
clinical; Cmax (T), Patient 3, termination analysis Week 9
  Cmax: 3.9e-06 M
clinical; Cmax (T), Patient 4, termination analysis Week 9
  Cmax: 1.6e-06 M
clinical; Cmax (T), Patient 5, termination analysis Week 9
  Cmax: 1e-06 M
clinical; Cmax (T), Patient 6, termination analysis Week 9
  Cmax: 2.5e-06 M
clinical; Cmax (T), Patient 7, termination analysis Week 9
  Cmax: 4e-07 M
clinical; Cmax (T), Patient 8, termination analysis Week 9
  Cmax: 1.3e-06 M
